# Experimental data taken from PMC7144325, “Discovery of novel ATAD2 bromodomain inhibitors that trigger apoptosis and autophagy in breast cells by structure-based virtual screening” (Journal of Enzyme Inhibition and Medicinal Chemistry, 2020).
# “Also recorded” adds a separate entry of the source. Like-named read-outs stand apart in the source and are kept apart here.
# Assays:
# [1] = target: T1, ATAD2 bromodomain (Homo sapiens, UniProt Q6PL18); test: TR-FRET assay, ATAD2 bromodomain; format: binding
# T1 sequence (Q6PL18 980-1092 limits assumed): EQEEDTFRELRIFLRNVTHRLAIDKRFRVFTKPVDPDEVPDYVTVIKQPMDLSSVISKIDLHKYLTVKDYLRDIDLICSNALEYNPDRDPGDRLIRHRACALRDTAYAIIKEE
# Experimental: (§1) The assay was performed by TR-FRET technology using recombinant bromodomain and BET Ligand[27]. The compounds were diluted in 100% DMSO. They were diluted 20 fold in 5% DMSO in Reaction Buffer and 2 µl of the dilution was added to a 20 µl reaction. The reaction mixture incubated for 180 min prior to reading the TR-FRET signal. TR-FRET was recorded as the ratio of the fluorescence of the acceptor and the donor dyes (acceptor/donor). Binding experiments were performed in duplicate at each concentration. The TR-FRET data were analysed using the computer software, Graphpad Prism.
# [2] = test system: MDA-MB-231 cells; test: Cell viability assay (MTT), MDA-MB-231; format: cell-based; conditions: for antiproliferatory inhibition rate in cell viability assay: at 20 µM, MDA-MB-231 cells; for IC50: Homo sapiens, MDA-MB-231, MTT, read-out: IC50 antiproliferative, MDA-MB-231
# Experimental: MDA-MB-231cells were purchased from American Type Culture Collection (ATCC, Manassas, VA, USA). Cells were cultured in DMEM with 10% foetal bovine serum and incubated with 5% CO2. Antibodies used in this study were as follow: ATAD2 (ab176319, abcam), c-Myc (ab32072, abcam), cMyc^Ser62 (ab51156, abcam), Bax(5023, CST), Bcl-2(15071, CST), caspase8(9746, CST), caspase-3 (9665, CST), AKT (4691, CST), mTOR (2983, CST), p-mTOR^Ser2448 (5536,CST), ULK1 (6439, CST), p-ULK1^Ser555 (5869, CST), p62 (5114, CST), Beclin1 (4122, CST), LC3B (3868, CST), β-actin (3700, CST).
# (§2) Cells were dispensed in 96-well plates at a density of 5 × 10^4 cells/ml. After 24 h incubation, cells were treated with different concentrations of compounds for the indicated periods. Cell viability was measured by the MTT assay.
# [3] = target: T2, BRD2(1) (Homo sapiens, UniProt P25440); test: TR-FRET assay, BRD2(1); format: binding
# T2 construct: against the first and second bromodomains of BRD2, BRD3 and BRD4
# Experimental: as §1
# [4] = target: T3, BRD2(2) (Homo sapiens, UniProt P25440); test: TR-FRET assay, BRD2(2); format: binding
# T3 construct: against the first and second bromodomains of BRD2, BRD3 and BRD4
# Experimental: as §1
# [5] = target: T4, BRD3(1) (Homo sapiens, UniProt Q15059); test: TR-FRET assay, BRD3(1); format: binding
# T4 construct: against the first and second bromodomains of BRD2, BRD3 and BRD4
# Experimental: as §1
# [6] = target: T5, BRD3(2) (Homo sapiens, UniProt Q15059); test: TR-FRET assay, BRD3(2); format: binding
# T5 construct: against the first and second bromodomains of BRD2, BRD3 and BRD4
# Experimental: as §1
# [7] = target: T6, BRD4(1) (Homo sapiens, UniProt O60885); test: TR-FRET assay, BRD4(1); format: binding
# T6 construct: against the first and second bromodomains of BRD2, BRD3 and BRD4
# Experimental: as §1
# [8] = target: T7, BRD4(2) (Homo sapiens, UniProt O60885); test: TR-FRET assay, BRD4(2); format: binding
# T7 construct: against the first and second bromodomains of BRD2, BRD3 and BRD4
# Experimental: as §1
# [9] = test system: BRD2-4; test: TR-FRET selectivity, statement for BRD2, BRD3 and BRD4 together; format: binding; conditions: first and second bromodomains
# Experimental: as §1
# [10] = test system: MDA-MB-231, MDA-MB-436, MDA-MB-468, BT474 and MCF-7 cells; test: Anti-proliferation activity on breast cancer cell panel (MTT); format: cell-based; conditions: MDA-MB-231, MDA-MB-436, MDA-MB-468, BT474 and MCF-7 cells (Figure S1)
# Experimental: as §2
# [11] = test system: MDA-MB-231 cells; test: Apoptosis assay, flow cytometry of Annexin-V/PI double staining; format: cell-based; conditions: MDA-MB-231, 1.25, 2.5 and 5 μM, 24 h
# [12] = test system: MDA-MB-231 cells; test: TUNEL apoptosis assay; format: cell-based; conditions: MDA-MB-231, 2.5 μM, 24 h
# Experimental: TUNEL staining was also used to detect cell apoptosis. Cells were treated with DMSO or AM879 and then formalin-fixed.
# [13] = test system: ATAD2, c-Myc, p-cMyc in MDA-MB-231 cells; test: Western blot of ATAD2, c-Myc and p-cMyc; format: cell-based; conditions: MDA-MB-231, 1.25, 2.5 and 5.0 µM, 24 h
# Experimental: (§3) Adherent and floating cells were collected after treatment with AM879 for indicated times. Cells were lysed in a lysis buffer consisting of Hepes 50 mM pH 7.4, Triton-X-100 1%, sodium orthovanada 2 mM, sodium fluoride 100 mM, edetic acid 1 mM, PMSF 1 mM, aprotinin (Sigma, MO, USA) 10 mg/L and leupeptin (Sigma) 10 mg/L at 4 °C for 1 h. After 12,000 rpm centrifugation for 15 min, the protein content of supernatant was determined by the Bio-Rad DC protein assay (Bio-Rad Laboratories, Hercules, CA, USA). Equal amounts of the total protein were separated by 10–15% SDS-PAGE and transferred to PVDF membranes, and the membranes were soaked in blocking buffer (5% skimmed milk or BSA). Proteins were detected using primary antibodies, followed by HRP-conjugated secondary antibody and visualised by using ECL as the HRP substrate. Quantity One 4.4 was used to quantify.
# [14] = test system: Bax, Bcl-2, Caspase8, Caspase3 in MDA-MB-231 cells; test: Western blot of Bax, Bcl-2, Caspase8 and Caspase3; format: cell-based; conditions: MDA-MB-231, 1.25, 2.5 and 5 μM, 24 h
# Experimental: as §3
# [15] = test system: PI3K-AKT-mTOR signalling in MDA-MB-231 cells; test: Western blot of PI3K-AKT-mTOR signalling; format: cell-based; conditions: MDA-MB-231, 1.25, 2.5, 5 µM, 24 h
# Experimental: as §3
# [16] = test system: MDA-MB-231 cells; test: Autophagy assay, GFP/mRFP-LC3 puncta; format: cell-based; conditions: MDA-MB-231, GFP-mRFP-LC3, 24 h
# [17] = test system: ULK1, p-ULK1, Beclin 1, p62, LC3 in MDA-MB-231 cells; test: Western blot of ULK1, p-ULK1, Beclin 1, SQSTM1/p62 and LC3; format: cell-based; conditions: MDA-MB-231, 1.25, 2.5, 5 µM, 24 h
# Experimental: as §3
# [18] = set-up: method as in PMID 29043777, PMID 30226378, PMID 31398032; conditions: in vitro or vivo cellular assays; cited from earlier work
# [19] = set-up: method as in PMID 27530368; conditions: in vivo as printed; cited from earlier work
# [20] = target: T1, ATAD2 bromodomain; conditions: cited from earlier work
# [21] = test system: BET; set-up: method as in PMID 26230603; conditions: ATAD2 over BET; cited from earlier work
# T4 sequence (Q15059 34-140 limits assumed): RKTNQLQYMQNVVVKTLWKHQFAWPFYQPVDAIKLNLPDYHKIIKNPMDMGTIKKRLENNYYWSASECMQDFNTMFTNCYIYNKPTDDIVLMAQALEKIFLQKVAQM
# T3 sequence (P25440 344-453 limits assumed): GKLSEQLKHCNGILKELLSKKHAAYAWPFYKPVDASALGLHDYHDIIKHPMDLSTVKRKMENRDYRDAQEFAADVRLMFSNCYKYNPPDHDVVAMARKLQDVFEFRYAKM
# T5 sequence (Q15059 306-415 limits assumed): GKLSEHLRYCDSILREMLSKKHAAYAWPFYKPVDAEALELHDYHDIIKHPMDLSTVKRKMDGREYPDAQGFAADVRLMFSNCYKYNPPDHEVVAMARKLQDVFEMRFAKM
# T2 sequence (P25440 74-180 limits assumed): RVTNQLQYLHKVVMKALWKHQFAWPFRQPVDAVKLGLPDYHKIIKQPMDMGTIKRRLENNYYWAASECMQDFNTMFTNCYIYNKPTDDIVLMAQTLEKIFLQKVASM
smiles,measurement,setting,value
CCn1c(SCC(C)=O)nc2c1c(=O)[nH]c(=O)n2C [AG-690],inhibition at 20 µM,"[1]; at 20 µM, read-out: ATAD2 enzyme inhibition rate",79%
same,antiproliferatory inhibition rate in cell viability assay,[2],less potency than AM879
CC1=C(C#N)c2nc(N)c(C#N)c(C)c2/C1=C\c1ccc(-c2cc(C(=O)O)ccc2Cl)o1 [AM879],IC50,"[1]; Table 3, read-out: IC50 ATAD2",3560 nM
same,IC50,[3],> 50000 nM
same,IC50,[4],> 50000 nM
same,IC50,[5],> 50000 nM
same,IC50,[6],> 50000 nM
same,IC50,[7],> 50000 nM
same,IC50,[8],> 50000 nM
same,inhibitory activity against BRD2-4,[9],no inhibitory activity
same,inhibitory activity against BRD2-4,[9]; listed as AM-879,no activity
same,IC50,[2]; 24 h,2430 nM
same,IC50,[2]; 48 h,2060 nM
same,IC50,[2]; 72 h,1050 nM
same,antiproliferatory inhibition rate in cell viability assay,[2],90%
same,anti-proliferation activity on breast cancer cells,[10],potent antiproliferatory activity
same,apoptotic cells by Annexin-V/PI staining,[11],significant increase in early and late apoptotic cells
same,apoptosis by TUNEL assay,[12],obvious FITC fluorescence were aggregated in the nucleus
same,"expression of ATAD2, c-Myc and p-cMyc",[13],"suppressed the expression of c-Myc; also recorded: inhibited the expression of ATAD2, c-Myc and the phosphorylation of c-Myc"
same,"expression of Bax, Bcl-2, Caspase8 and Caspase3",[14],"elevated the expression of Bax, reduced the expression of Bcl-2, accompanied with the cleavage of caspase3 and caspase8"
same,PI3K-AKT-mTOR signalling protein expression,[15],"obviously downregulated expression of PI3K, AKT, mTOR and mTOR^Ser2448"
same,autophagy induction (LC3 puncta),[16],obvious aggregation of LC3 puncta
same,autophagy induction (LC3 puncta),[16]; listed as AM978,induce autophagy
same,"expression of ULK1, p-ULK1, Beclin 1, SQSTM1/p62 and LC3-II",[17],"elevation of ULK1, p-ULK1, Beclin 1 and LC3-II in a dose-dependent manner, as well as degradation of SQSTM1/p62"
"COc1cc(Cl)c(C(=O)N[C@@H](CN[C@H]2CC[C@@H](N)CC2)Cc2ccc(C#N)cc2)cc1-c1ccc(CN[C@H](C)c2ccc(C)cc2)o1 [BAY-850, reference compound]",IC50,[1]; read-out: IC50 against ATAD2 bromodomain,242 nM
same,activity in cellular assays,[18],lack activity
CO[C@H]1CNC[C@@H](OCC2CCC(F)(F)CC2)[C@@H]1Nc1ncc(-c2cncc(C)c2)c2cc(C)c(=O)[nH]c12 [GSK8814],antiproliferative activity,[19],weak antiproliferative
CC1(C2CC2)NC(=O)N(CC(=O)Nc2ccc(Br)c(S(=O)(=O)N3CCCCC3)c2)C1=O (stereo not shown) [compound 23],activity in cellular assays,[18],lack activity
Cc1ccc(-c2cnc(NC3CC4CCC(N4)C3CCC3CCC(F)(F)CC3)c3[nH]c(=O)c(C)cc23)cn1 (stereo not shown) [compound 26],activity in cellular assays,[18],lack activity
Cc1cncc(-c2cnc(N[C@@H]3CCNC[C@H]3OCC3CCS(=O)(=O)CC3)c3[nH]c(=O)c(C)cc23)c1 [compound 38],ATAD2 potency,[20],100 nM
same,BET selectivity,[21],100 fold
